ChEMBL document CHEMBL2346657, “Synthesis of novel 2-amino-4-(5'-substituted 2'-phenyl-1H-indol-3'-yl)-6-aryl-4H-pyran-3-carbonitrile derivatives as antimicrobial and antioxidant agents” (2013)
Active and inactive are the calls of the source. No rule for the calls is given here.

System: not listed separately
Assay: Antioxidant activity assessed as metal chelating activity by measuring inhibition of ferrozine-Fe2+ complex formation at 25 to 100 ug/ml
Type: functional
Conditions: not given

Row | Structure (SMILES) | Activity
1 | Cc1ccc(C2=CC(c3c(-c4ccccc4)[nH]c4ccc(Cl)cc34)c3c(N)nc(=S)[nH]c3O2)cc1 (stereo not given) | Active
2 | Cc1ccc2[nH]c(-c3ccccc3)c(C3C=C(c4ccccc4)OC(N)=C3C#N)c2c1 (stereo not given) | Active

System: Aspergillus flavus
Assay: Antimicrobial activity against Aspergillus flavus MTCC 1973 at 500 ug/ml after 72 hrs by cup plate method
Type: functional
Conditions: MTCC 1973, 72 h, read-out: IZ

Row | Structure (SMILES) | zone of inhibition at 500 µg/mL [mm]
3 | Cc1ccc(C2=CC(c3c(-c4ccccc4)[nH]c4ccc(Cl)cc34)c3c(N)nc(=S)[nH]c3O2)cc1 (stereo not given) | 3
4 | Cc1ccc2[nH]c(-c3ccccc3)c(C3C=C(c4ccccc4)OC(N)=C3C#N)c2c1 (stereo not given) | 2

System: Aspergillus flavus
Assay: Antimicrobial activity against Aspergillus flavus MTCC 1973 at 750 ug/ml after 72 hrs by cup plate method
Type: functional
Conditions: MTCC 1973, 72 h, read-out: IZ

Row | Structure (SMILES) | zone of inhibition at 750 µg/mL [mm]
5 | Cc1ccc(C2=CC(c3c(-c4ccccc4)[nH]c4ccc(Cl)cc34)c3c(N)nc(=S)[nH]c3O2)cc1 (stereo not given) | 3
6 | Cc1ccc2[nH]c(-c3ccccc3)c(C3C=C(c4ccccc4)OC(N)=C3C#N)c2c1 (stereo not given) | 2

System: Aspergillus flavus
Assay: Antimicrobial activity against Aspergillus flavus MTCC 1973 at 1000 ug/ml after 72 hrs by cup plate method
Type: functional
Conditions: MTCC 1973, 72 h, read-out: IZ

Row | Structure (SMILES) | zone of inhibition at 1000 µg/mL [mm]
7 | Cc1ccc(C2=CC(c3c(-c4ccccc4)[nH]c4ccc(Cl)cc34)c3c(N)nc(=S)[nH]c3O2)cc1 (stereo not given) | 3
8 | Cc1ccc2[nH]c(-c3ccccc3)c(C3C=C(c4ccccc4)OC(N)=C3C#N)c2c1 (stereo not given) | 4

System: Aspergillus terreus
Assay: Antimicrobial activity against Aspergillus terreus MTCC 1782 at 500 ug/ml after 72 hrs by cup plate method
Type: functional
Conditions: MTCC 1782, 72 h, read-out: IZ

Row | Structure (SMILES) | zone of inhibition at 500 µg/mL [mm]
9 | Cc1ccc(C2=CC(c3c(-c4ccccc4)[nH]c4ccc(Cl)cc34)c3c(N)nc(=S)[nH]c3O2)cc1 (stereo not given) | 9
10 | Cc1ccc2[nH]c(-c3ccccc3)c(C3C=C(c4ccccc4)OC(N)=C3C#N)c2c1 (stereo not given) | 6

System: Aspergillus terreus
Assay: Antimicrobial activity against Aspergillus terreus MTCC 1782 at 750 ug/ml after 72 hrs by cup plate method
Type: functional
Conditions: MTCC 1782, 72 h, read-out: IZ

Row | Structure (SMILES) | zone of inhibition at 750 µg/mL [mm]
11 | Cc1ccc(C2=CC(c3c(-c4ccccc4)[nH]c4ccc(Cl)cc34)c3c(N)nc(=S)[nH]c3O2)cc1 (stereo not given) | 8
12 | Cc1ccc2[nH]c(-c3ccccc3)c(C3C=C(c4ccccc4)OC(N)=C3C#N)c2c1 (stereo not given) | 5

System: Aspergillus terreus
Assay: Antimicrobial activity against Aspergillus terreus MTCC 1782 at 1000 ug/ml after 72 hrs by cup plate method
Type: functional
Conditions: MTCC 1782, 72 h, read-out: IZ

Row | Structure (SMILES) | zone of inhibition at 1000 µg/mL [mm]
13 | Cc1ccc(C2=CC(c3c(-c4ccccc4)[nH]c4ccc(Cl)cc34)c3c(N)nc(=S)[nH]c3O2)cc1 (stereo not given) | 8
14 | Cc1ccc2[nH]c(-c3ccccc3)c(C3C=C(c4ccccc4)OC(N)=C3C#N)c2c1 (stereo not given) | 5

System: Aspergillus oryzae
Assay: Antimicrobial activity against Aspergillus oryzae MTCC 3567 at 500 ug/ml after 72 hrs by cup plate method
Type: functional
Conditions: MTCC 3567, 72 h, read-out: IZ

Row | Structure (SMILES) | zone of inhibition at 500 µg/mL [mm]
15 | Cc1ccc(C2=CC(c3c(-c4ccccc4)[nH]c4ccc(Cl)cc34)c3c(N)nc(=S)[nH]c3O2)cc1 (stereo not given) | 3
16 | Cc1ccc2[nH]c(-c3ccccc3)c(C3C=C(c4ccccc4)OC(N)=C3C#N)c2c1 (stereo not given) | 8

System: Aspergillus oryzae
Assay: Antimicrobial activity against Aspergillus oryzae MTCC 3567 at 750 ug/ml after 72 hrs by cup plate method
Type: functional
Conditions: MTCC 3567, 72 h, read-out: IZ

Row | Structure (SMILES) | zone of inhibition at 750 µg/mL [mm]
17 | Cc1ccc(C2=CC(c3c(-c4ccccc4)[nH]c4ccc(Cl)cc34)c3c(N)nc(=S)[nH]c3O2)cc1 (stereo not given) | 2
18 | Cc1ccc2[nH]c(-c3ccccc3)c(C3C=C(c4ccccc4)OC(N)=C3C#N)c2c1 (stereo not given) | 4

System: Aspergillus oryzae
Assay: Antimicrobial activity against Aspergillus oryzae MTCC 3567 at 1000 ug/ml after 72 hrs by cup plate method
Type: functional
Conditions: MTCC 3567, 72 h, read-out: IZ

Row | Structure (SMILES) | zone of inhibition at 1000 µg/mL [mm]
19 | Cc1ccc(C2=CC(c3c(-c4ccccc4)[nH]c4ccc(Cl)cc34)c3c(N)nc(=S)[nH]c3O2)cc1 (stereo not given) | 2
20 | Cc1ccc2[nH]c(-c3ccccc3)c(C3C=C(c4ccccc4)OC(N)=C3C#N)c2c1 (stereo not given) | 3

System: Aspergillus niger
Assay: Antimicrobial activity against Aspergillus niger MTCC 281 at 500 ug/ml after 72 hrs by cup plate method
Type: functional
Conditions: MTCC 281, 72 h, read-out: IZ

Row | Structure (SMILES) | zone of inhibition at 500 µg/mL [mm]
21 | Cc1ccc(C2=CC(c3c(-c4ccccc4)[nH]c4ccc(Cl)cc34)c3c(N)nc(=S)[nH]c3O2)cc1 (stereo not given) | 10
22 | Cc1ccc2[nH]c(-c3ccccc3)c(C3C=C(c4ccccc4)OC(N)=C3C#N)c2c1 (stereo not given) | 9

System: Aspergillus niger
Assay: Antimicrobial activity against Aspergillus niger MTCC 281 at 750 ug/ml after 72 hrs by cup plate method
Type: functional
Conditions: MTCC 281, 72 h, read-out: IZ

Row | Structure (SMILES) | zone of inhibition at 750 µg/mL [mm]
23 | Cc1ccc(C2=CC(c3c(-c4ccccc4)[nH]c4ccc(Cl)cc34)c3c(N)nc(=S)[nH]c3O2)cc1 (stereo not given) | 10
24 | Cc1ccc2[nH]c(-c3ccccc3)c(C3C=C(c4ccccc4)OC(N)=C3C#N)c2c1 (stereo not given) | 10

System: Aspergillus niger
Assay: Antimicrobial activity against Aspergillus niger MTCC 281 at 1000 ug/ml after 72 hrs by cup plate method
Type: functional
Conditions: MTCC 281, 72 h, read-out: IZ

Row | Structure (SMILES) | zone of inhibition at 1000 µg/mL [mm]
25 | Cc1ccc(C2=CC(c3c(-c4ccccc4)[nH]c4ccc(Cl)cc34)c3c(N)nc(=S)[nH]c3O2)cc1 (stereo not given) | 10
26 | Cc1ccc2[nH]c(-c3ccccc3)c(C3C=C(c4ccccc4)OC(N)=C3C#N)c2c1 (stereo not given) | 10

System: Pseudomonas aeruginosa
Assay: Antimicrobial activity against Pseudomonas aeruginosa MTCC 1688 at 500 ug/ml after 24 hrs by cup plate method
Type: functional
Conditions: MTCC 1688, 24 h, read-out: IZ

Row | Structure (SMILES) | zone of inhibition at 500 µg/mL [mm]
27 | Cc1ccc(C2=CC(c3c(-c4ccccc4)[nH]c4ccc(Cl)cc34)c3c(N)nc(=S)[nH]c3O2)cc1 (stereo not given) | 10
28 | Cc1ccc2[nH]c(-c3ccccc3)c(C3C=C(c4ccccc4)OC(N)=C3C#N)c2c1 (stereo not given) | 6

System: Pseudomonas aeruginosa
Assay: Antimicrobial activity against Pseudomonas aeruginosa MTCC 1688 at 750 ug/ml after 24 hrs by cup plate method
Type: functional
Conditions: MTCC 1688, 24 h, read-out: IZ

Row | Structure (SMILES) | zone of inhibition at 750 µg/mL [mm]
29 | Cc1ccc(C2=CC(c3c(-c4ccccc4)[nH]c4ccc(Cl)cc34)c3c(N)nc(=S)[nH]c3O2)cc1 (stereo not given) | 10
30 | Cc1ccc2[nH]c(-c3ccccc3)c(C3C=C(c4ccccc4)OC(N)=C3C#N)c2c1 (stereo not given) | 5

System: Pseudomonas aeruginosa
Assay: Antimicrobial activity against Pseudomonas aeruginosa MTCC 1688 at 1000 ug/ml after 24 hrs by cup plate method
Type: functional
Conditions: MTCC 1688, 24 h, read-out: IZ

Row | Structure (SMILES) | zone of inhibition at 1000 µg/mL [mm]
31 | Cc1ccc(C2=CC(c3c(-c4ccccc4)[nH]c4ccc(Cl)cc34)c3c(N)nc(=S)[nH]c3O2)cc1 (stereo not given) | 10
32 | Cc1ccc2[nH]c(-c3ccccc3)c(C3C=C(c4ccccc4)OC(N)=C3C#N)c2c1 (stereo not given) | 5

System: Klebsiella pneumoniae
Assay: Antimicrobial activity against Klebsiella pneumoniae NCTC 13368 at 500 ug/ml after 24 hrs by cup plate method
Type: functional
Conditions: NCTC 13368, 24 h, read-out: IZ

Row | Structure (SMILES) | zone of inhibition at 500 µg/mL [mm]
33 | Cc1ccc(C2=CC(c3c(-c4ccccc4)[nH]c4ccc(Cl)cc34)c3c(N)nc(=S)[nH]c3O2)cc1 (stereo not given) | 10
34 | Cc1ccc2[nH]c(-c3ccccc3)c(C3C=C(c4ccccc4)OC(N)=C3C#N)c2c1 (stereo not given) | 4

System: Klebsiella pneumoniae
Assay: Antimicrobial activity against Klebsiella pneumoniae NCTC 13368 at 750 ug/ml after 24 hrs by cup plate method
Type: functional
Conditions: NCTC 13368, 24 h, read-out: IZ

Row | Structure (SMILES) | zone of inhibition at 750 µg/mL [mm]
35 | Cc1ccc(C2=CC(c3c(-c4ccccc4)[nH]c4ccc(Cl)cc34)c3c(N)nc(=S)[nH]c3O2)cc1 (stereo not given) | 10
36 | Cc1ccc2[nH]c(-c3ccccc3)c(C3C=C(c4ccccc4)OC(N)=C3C#N)c2c1 (stereo not given) | 4

System: Klebsiella pneumoniae
Assay: Antimicrobial activity against Klebsiella pneumoniae NCTC 13368 at 1000 ug/ml after 24 hrs by cup plate method
Type: functional
Conditions: NCTC 13368, 24 h, read-out: IZ

Row | Structure (SMILES) | zone of inhibition at 1000 µg/mL [mm]
37 | Cc1ccc(C2=CC(c3c(-c4ccccc4)[nH]c4ccc(Cl)cc34)c3c(N)nc(=S)[nH]c3O2)cc1 (stereo not given) | 9
38 | Cc1ccc2[nH]c(-c3ccccc3)c(C3C=C(c4ccccc4)OC(N)=C3C#N)c2c1 (stereo not given) | 4

System: Staphylococcus aureus
Assay: Antimicrobial activity against Staphylococcus aureus ATCC 29513 at 500 ug/ml after 24 hrs by cup plate method
Type: functional
Conditions: ATCC 29513, 24 h, read-out: IZ

Row | Structure (SMILES) | zone of inhibition at 500 µg/mL [mm]
39 | Cc1ccc(C2=CC(c3c(-c4ccccc4)[nH]c4ccc(Cl)cc34)c3c(N)nc(=S)[nH]c3O2)cc1 (stereo not given) | 6
40 | Cc1ccc2[nH]c(-c3ccccc3)c(C3C=C(c4ccccc4)OC(N)=C3C#N)c2c1 (stereo not given) | 5

System: Staphylococcus aureus
Assay: Antimicrobial activity against Staphylococcus aureus ATCC 29513 at 750 ug/ml after 24 hrs by cup plate method
Type: functional
Conditions: ATCC 29513, 24 h, read-out: IZ

Row | Structure (SMILES) | zone of inhibition at 750 µg/mL [mm]
41 | Cc1ccc(C2=CC(c3c(-c4ccccc4)[nH]c4ccc(Cl)cc34)c3c(N)nc(=S)[nH]c3O2)cc1 (stereo not given) | 3
42 | Cc1ccc2[nH]c(-c3ccccc3)c(C3C=C(c4ccccc4)OC(N)=C3C#N)c2c1 (stereo not given) | 5

System: Staphylococcus aureus
Assay: Antimicrobial activity against Staphylococcus aureus ATCC 29513 at 1000 ug/ml after 24 hrs by cup plate method
Type: functional
Conditions: ATCC 29513, 24 h, read-out: IZ

Row | Structure (SMILES) | zone of inhibition at 1000 µg/mL [mm]
43 | Cc1ccc(C2=CC(c3c(-c4ccccc4)[nH]c4ccc(Cl)cc34)c3c(N)nc(=S)[nH]c3O2)cc1 (stereo not given) | 2
44 | Cc1ccc2[nH]c(-c3ccccc3)c(C3C=C(c4ccccc4)OC(N)=C3C#N)c2c1 (stereo not given) | 5

System: Escherichia coli
Assay: Antimicrobial activity against Escherichia coli MTCC 723 at 500 ug/ml after 24 hrs by cup plate method
Type: functional
Conditions: MTCC 723, 24 h, read-out: IZ

Row | Structure (SMILES) | zone of inhibition at 500 µg/mL [mm]
45 | Cc1ccc(C2=CC(c3c(-c4ccccc4)[nH]c4ccc(Cl)cc34)c3c(N)nc(=S)[nH]c3O2)cc1 (stereo not given) | 10
46 | Cc1ccc2[nH]c(-c3ccccc3)c(C3C=C(c4ccccc4)OC(N)=C3C#N)c2c1 (stereo not given) | 6

System: Escherichia coli
Assay: Antimicrobial activity against Escherichia coli MTCC 723 at 750 ug/ml after 24 hrs by cup plate method
Type: functional
Conditions: MTCC 723, 24 h, read-out: IZ

Row | Structure (SMILES) | zone of inhibition at 750 µg/mL [mm]
47 | Cc1ccc(C2=CC(c3c(-c4ccccc4)[nH]c4ccc(Cl)cc34)c3c(N)nc(=S)[nH]c3O2)cc1 (stereo not given) | 9
48 | Cc1ccc2[nH]c(-c3ccccc3)c(C3C=C(c4ccccc4)OC(N)=C3C#N)c2c1 (stereo not given) | 6

System: Escherichia coli
Assay: Antimicrobial activity against Escherichia coli MTCC 723 at 1000 ug/ml after 24 hrs by cup plate method
Type: functional
Conditions: MTCC 723, 24 h, read-out: IZ

Row | Structure (SMILES) | zone of inhibition at 1000 µg/mL [mm]
49 | Cc1ccc(C2=CC(c3c(-c4ccccc4)[nH]c4ccc(Cl)cc34)c3c(N)nc(=S)[nH]c3O2)cc1 (stereo not given) | 9
50 | Cc1ccc2[nH]c(-c3ccccc3)c(C3C=C(c4ccccc4)OC(N)=C3C#N)c2c1 (stereo not given) | 5
